The target in series [1] is T1, wild type Gαq in HEK Gαq/Gα11-null cells (Homo sapiens, UniProt P50148).
T1 construct: expressed in transfected cells; host or cells: CRISPR/Cas9-edited HEK293 Gαq/Gα11-null cells
T1 sequence (P50148 1-359): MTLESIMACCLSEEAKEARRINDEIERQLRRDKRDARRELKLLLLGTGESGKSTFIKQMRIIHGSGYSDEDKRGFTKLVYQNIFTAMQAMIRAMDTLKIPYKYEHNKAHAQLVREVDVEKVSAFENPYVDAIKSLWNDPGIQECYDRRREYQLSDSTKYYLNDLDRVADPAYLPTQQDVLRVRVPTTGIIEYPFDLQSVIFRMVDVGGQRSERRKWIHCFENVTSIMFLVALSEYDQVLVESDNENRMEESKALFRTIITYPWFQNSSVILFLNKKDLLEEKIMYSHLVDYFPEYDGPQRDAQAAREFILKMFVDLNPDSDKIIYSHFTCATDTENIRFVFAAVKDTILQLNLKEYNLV
Put plainly: DMR (dynamic mass redistribution) inhibition of carbachol (CCh 100 µM) response in Gαq-transfected HEK293 Gαq/Gα11-null cells. Format: cell-based. The following applies: compounds added 1 h before, 37 °C, mean ± s.e.m. of n independent replicates in technical triplicates (FR n=11, FR-Core n=4, FR-5 n=4), read-out: pIC50 (Gαq inhibition, DMR) (converted). How it is done:
Label-free dynamic mass redistribution (DMR) assay
Cell culture materials were purchased from Invitrogen (Carlsbad, CA, USA). Generation of genetically engineered HEK293 cells using CRISPR/Cas9 technology to knockout the subunits of Gαq and Gα11 (Gαq/Gα11-null cells) is described elsewhere. Cells were maintained in Dulbecco’s modified Eagle’s medium (DMEM) supplemented with 10% (v/v) fetal calf serum (FCS, PAN biotech, Germany), penicillin (100 units/mL), and streptomycin (0.1 mg/mL), and kept in a humidified atmosphere with 5% CO2 at 37 °C. All cell lines were screened by PCR on a monthly basis for mycoplasma contamination and were tested negative. DMR measurements were performed analogous to prior studies[39],[40] using the Epic DMR reader (Corning, NY, USA) together with the Cybi-SELMA semi-automated electronic pipetting system (Analytik Jena AG, Jena, Germany). 24 h after transfection with the G protein αq subunit, HEK293 cells were counted and seeded on 384-well fibronectin-coated biosensor plates at a density of 17,000 cells per well. On the next day, cells were washed twice with Hanks’ buffered salt solution containing 20 mM HEPES (HBSS + HEPES) and incubated for 1 h at 37 °C in the EPIC reader. 1, 2, 3 or 7 in HBSS + HEPES were added 1 h before the measurement. The sensor plate was scanned to record a baseline optical signature (no change in basal DMR), and after the addition of compounds, DMR alterations were monitored for 3000 s at 37 °C. All data were analyzed using GraphPad Prism 8.0.0 (GraphPad Inc, La Jolla, CA, USA). Quantification of DMR signals was performed by calculation of the maximum responses. […]
Concentration-effect curves in Fig. 4a–c were normalized by setting each experimental maximal effect as 100% response. All data are expressed as mean + or ± standard error of the mean (s.e.m.) of at least three independent experiments performed in technical triplicates. […]
Supplementary Table 6: Quantification of FR, FR-Core and FR-5 inhibitory activities at wild type Gαq in HEK Gαq/Gα11-null cells. […]

Series [2] concerns the target T2, Gαq proteins (human platelet membrane preparations) (Homo sapiens, UniProt P50148).
T2 construct: human platelet membrane preparations that natively express Gαq proteins; from tissue; host or cells: human platelet membrane preparation
T2 sequence (P50148 1-359): T1 sequence (P50148 1-359)
Put plainly: Competition binding vs [³H]PSB-15900 at human platelet membrane preparations. The following applies: vs 5 nM [³H]PSB-15900; 50 µg protein; 50 mM Tris pH 7.4; 37 °C, 1 h; read-out: pIC50 (competition binding) (converted). How it is done:
Competition binding assay
Competition binding assays of 1 and 2 were conducted versus the radiolabeled FR derivative [³H]PSB-15900 utilizing human platelet membrane preparations that natively express Gαq proteins. The experiments were performed in 50 mM Tris, pH=7.4, in a final assay volume of 200 µl. Each assay tube contained 50 µl [³H]PSB-15900 solution in the buffer (final concentration: 5 nM), 50 µl of human platelet membrane preparation in buffer (50 µg of protein), 95 µl of buffer, and 5 µl of 1 or 2 solution, respectively, in varying concentrations dissolved in DMSO. Non-specific-binding was determined in the presence of 5 µM FR dissolved in DMSO. Incubation was performed at 37 °C for 1 h with gentle shaking and was started by the addition of the membrane preparation. The incubation was terminated by rapid filtration through GF/C glass fiber filters using a Brandel 24-well-harvester. Filters were dried, punched out, transferred to scintillation vials, and incubated for at least 6 h in scintillation cocktail (2.5 ml ProSafe FC+®, Meridian Biotechnologies Ltd, UK) prior to measurement in a liquid scintillation counter at an efficiency of 53%. Data were evaluated using GraphPad Prism 7 (GraphPad Inc., San Diego, CA, USA), and IC50 values were determined by the One site – Fit logIC50-equation.

For series [3], the system named is Riptortus pedestris. Put plainly: Oral feeding toxicity, survival rate of first instar stinkbug nymphs. Format: in vivo. Particulars: 40 µM, nine days. Here is the method: Feeding and effect determination of 1 and 2 on insects
A small cotton pad soaked with 500 µl of 1 or 2-containing water was served to first instar nymphs of the stinkbug R. pedestris for oral intake. For feeding, 1 and 2 were each dissolved in 100% MeOH and diluted with water to concentrations of 0.2, 0.04, and 0.02 µg/µl. Distilled water containing 2% MeOH was used as control. Each experiment included 20 stinkbug individuals. Insects were reared in a moisture chamber at 25 °C under a long day regimen (16 h light, 8 h dark), supplied with dried soybean seeds. The 1 or 2-containing water was exchanged every 3 d, and the survival rate was monitored every day at the same time for 9 d.
Please select the one below that is the best fit for your research. If you are not sure, read the appropriate sections before making your selection. […]
Sample size Sample size: 7 groups of each 20 animals were treated with control (1 group) and two different compounds at 3 different concentrations (6 groups). […] Sample size (size of group) was determined based on standard laboratory practice, and the available amount of the compounds for the experiments. […]
We require information from authors about some types of materials, experimental systems and methods used in many studies. […] If you are not sure if a list item applies to your research, read the appropriate section before selecting a response. […]

*1 amine or outer side, *2 acyl side, *3 side chain or, on linkers, in order; H or OH if unused. Where a SMILES comes first, the peptide text is derived from it. Bridges are numbered along the chain shown (N, C = ends). [ ]: non-standard residue; d: D form. The star is where a group is joined. Leu(3R-OH,Nα-propionyl) = CCC(=O)N[C@H](C(=O)*)[C@H](O)C(C)C; X1 = CC(C)[C@@H](O[*:3])[C@H](N[*:1])C(=O)[*:2]; Leu(3R-OH) = CC(C)[C@@H](O)[C@H](N)C(=O)O; X2 = CCCC(=O)N[C@H](C(=O)*)[C@H](O)C(C)C; NMeT = CN[C@H](C(=O)O)[C@@H](C)O; dPhLac = O=C(O)[C@H](O)Cc1ccccc1; NMeA = CN[C@@H](C)C(=O)O; NMeDha = C=C(NC)C(=O)O

Turning to `C=C1C(=O)N[C@@H](C)C(=O)N(C)[C@@H](C)C(=O)N[C@@H]([C@H](OC(=O)[C@@H](NC(=O)CCC)[C@H](O)C(C)C)C(C)C)C(=O)N(C)[C@@H]([C@@H](C)OC)C(=O)O[C@H](C(C)C)[C@H](NC(C)=O)C(=O)O[C@H](Cc2ccccc2)C(=O)N1C` [FR-5] (Ac-[X1][dPhLac][NMeDha]A[NMeA][X1](X2)[NMeT](Me); ester 1-C), the IC50 in series [1] was 3160 nM.
Consider `C=C1C(=O)N[C@@H](C)C(=O)N(C)[C@@H](C)C(=O)N[C@@H]([C@H](O)C(C)C)C(=O)N(C)[C@@H]([C@@H](C)OC)C(=O)O[C@H](C(C)C)[C@H](NC(C)=O)C(=O)O[C@H](Cc2ccccc2)C(=O)N1C` [FR-Core] (Ac-[X1][dPhLac][NMeDha]A[NMeA][Leu(3R-OH)][NMeT](Me); ester 1-C), for which the IC50 in series [1] was 7410 nM; in series [2], 2750 nM.
As to `C=C1C(=O)N[C@@H](C)C(=O)N(C)[C@@H](C)C(=O)N[C@@H]([C@H](OC(=O)[C@@H](NC(=O)CC)[C@H](O)C(C)C)C(C)C)C(=O)N(C)[C@@H]([C@@H](C)OC)C(=O)O[C@H](C(C)C)[C@H](NC(C)=O)C(=O)O[C@H](Cc2ccccc2)C(=O)N1C` [FR] (Ac-[X1][dPhLac][NMeDha]A[NMeA][X1](Leu(3R-OH,Nα-propionyl))[NMeT](Me); ester 1-C), the values for the IC50 in series [1] and in series [2] were 457 nM and 13.2 nM, respectively. In addition, the “lethality in words, lower concentration” value in series [3] is on record as “lethal effects”.

For the origin of these results see PMC7794379, “Thioesterase-mediated side chain transesterification generates potent Gq signaling inhibitor FR900359” (Nature Communications, 2021).
